IC50 data for 1 compound are collected here from patent US20090326633A1, “CONTROLLED RELEASE ENDOPROSTHETIC DEVICE” (BOEHRINGER INGELHEIM PHARMA GMBH & CO. KG, priority 2001, published 2009).

This test has as its system muscle cells. The test can be described thus: Cell proliferation ELISA, BrdU incorporation into DNA (inhibition of DNA synthesis). The class given is cell-based. To be noted: stents loaded with dipyramidole. From the text:
Incorporation of BrdU instead of thymidine into the DNA, measurement with anti-BrdU-POD antibody (Cell proliferation ELISA, BrdU; obtained from Roche Diagnostics, Mannheim, Germany)
The following results have been obtained using this test with the stents loaded with dipyramidole according to the present invention: […]

As to `OCCN(CCO)c1nc(N2CCCCC2)c2nc(N(CCO)CCO)nc(N3CCCCC3)c2n1` [dipyridamole, 2,6-bis(diethanolamino)-4,8-dipiperidino-pyrimido[5,4-d]pyrimidine], the IC50 by setting is: (muscle cells stimulated with PDGF-BB) 100 to 300 nM; (muscle cells without stimulation) 1000 to 3000 nM; (with freshly prepared medium) 4000 to 10000 nM.
